Here are results for 26 compounds from ChEMBL document CHEMBL5143708, “New antimalarials identified by a cell-based phenotypic approach: Structure-activity relationships of 2,3,4,9-tetrahydro-1H-β-carboline derivatives possessing a 2-((coumarin-5-yl)oxy)alkanoyl moiety” (Bioorg Med Chem, 2022).

Data set [1] can be described thus: Cytotoxicity against human HL-60 cells assessed as reduction in cell viability after 48 hrs by Cell Count Reagent SF based assay. The class given is toxicity.
The subject of data set [2] is Plasmodium falciparum. Briefly: Antiplasmodial activity against Plasmodium falciparum 3D7 infected in human RBC assessed as reduction in parasite growth after 72 hrs by LDH assay. In kind it is functional, organism-based. Particulars: 3D7, Erythrocyte.
A short description of data set [3]: Toxicity in ICR mouse infected with Plasmodium berghei ANKA assessed as decrease in body weight at 200 mg/kg, ip administered for 4 to 7 days after post-infection by Giemsa staining based microscopic analysis. In kind it is organism-based. Conditions: in vivo, time 4-7 day.
Data set [4] in a line: AUC in ICR mouse at 40 mg/kg, ip. The class given is ADME, organism-based. Set-up: dose 40 mg/kg, route ip. Conditions: in vivo.
Data set [5] concerns Plasmodium falciparum. Briefly: Antiplasmodial activity against chloroquine-resistant Plasmodium falciparum Dd2 infected in human RBC assessed as reduction in parasite growth after 72 hrs by LDH assay. The class given is functional, organism-based. Particulars: Dd2, Erythrocyte.
Data set [6] deals with Plasmodium berghei. Briefly: Antimalarial activity against Plasmodium berghei ANKA infected in ICR mouse assessed as increase in survival at 200 mg/kg, ip administered for 4 to 7 days after post-infection and measured on day 19 post-infection by Giemsa staining based microscopic analysis. In kind it is functional, organism-based. Particulars: time 16.0 day.
Data set [7] relates to Plasmodium berghei. Briefly: Antimalarial activity against Plasmodium berghei ANKA infected in ICR mouse assessed as increase in body weight at 40 mg/kg, ip administered for 4 to 7 days after post-infection by Giemsa staining based microscopic analysis. In kind it is functional, organism-based. Conditions: time 4-7 day.
A short description of data set [8]: Tmax in ICR mouse at 40 mg/kg, ip. Conditions: in vivo. In kind it is ADME, organism-based.
Data set [9] is described as follows: Toxicity in ICR mouse infected with Plasmodium berghei ANKA assessed as decrease in body weight at 200 mg/kg, ip administered for 4 to 7 days after post-infection and measured on day 18 post-infection by Giemsa staining based microscopic analysis. In kind it is organism-based. Conditions: in vivo, 360 h, time 15 day.
Data set [10] deals with Plasmodium falciparum. Briefly: Antiplasmodial activity against chloroquine-resistant Plasmodium falciparum K1 infected in human RBC assessed as reduction in parasite growth after 72 hrs by LDH assay. In kind it is functional, organism-based. Particulars: K1, Erythrocyte.
For data set [11], the system named is Plasmodium berghei. Briefly: Antimalarial activity against Plasmodium berghei ANKA infected in ICR mouse assessed as increase in survival at 40 mg/kg, ip administered for 4 to 7 days after post-infection and measured on day 11 post-infection by Giemsa staining based microscopic analysis. The class given is functional, organism-based. Particulars: time 8.0 day.

Data set [12] deals with Plasmodium berghei. Briefly: Antimalarial activity against Plasmodium berghei ANKA infected in ICR mouse assessed as reduction in parasitemia level at 40 to 200 mg/kg, ip administered for 4 to 7 days after post-infection by Giemsa staining based microscopic analysis. In kind it is functional, organism-based. Particulars: dose 40-200 mg/kg, time 4-7 day.
Data set [13] in a line: Cmax in ICR mouse at 40 mg/kg, ip. In kind it is ADME, organism-based. Further details: dose 40 mg/kg, route ip. Particulars: in vivo.
For data set [14], the system named is Plasmodium berghei. Briefly: Antimalarial activity against Plasmodium berghei ANKA infected in ICR mouse assessed as increase in body weight at 200 mg/kg, ip administered for 4 to 7 days after post-infection and measured on day 11 post-infection by Giemsa staining based microscopic analysis. The class given is functional, organism-based. Particulars: time 8.0 day.

The nature of data set [15]: Half life in ICR mouse at 40 mg/kg, ip. The class given is ADME, organism-based. Conditions: in vivo.

Calls of active or inactive are those of the source. The rule behind the calls is not given here.

Broadly, the IC50 is the concentration that gives 50% inhibition. Turning to `CCCCc1cc(=O)oc2cc(C)cc(O[C@H](C)C(=O)N3Cc4[nH]c5ccc(F)cc5c4C[C@H]3C(=O)OC)c12`, the IC50 at 48 h in [1] is greater than 3000 nM. Further, the IC50 in the data set on Plasmodium falciparum [2] turned out to be 5.5 nM.

As for `CCCCc1cc(=O)oc2cc(C)cc(OC(C)C(=O)N3Cc4[nH]c5ccccc5c4C[C@H]3C(=O)OC)c12` (some centres undefined), in data set [1], the half-inhibitory concentration (IC50) at 48 h was greater than 3000 nM. Moreover, in the data set with Plasmodium falciparum [2], the IC50 is 6.8 nM.

In general, AUC refers to concentration integrated over time. Read a low AUC as low exposure. Usually Tmax stands for the time at which the peak concentration occurs. As usually defined, the Cmax is the maximum level reached in the sampled fluid or tissue. Usually half-life stands for the time in which the quantity being followed falls by half. With `CCCCc1cc(=O)oc2cc(C)cc(O[C@H](C)C(=O)N3Cc4[nH]c5ccccc5c4C[C@H]3C(=O)OC)c12`, the Activity result in data set [3] and in data set [9] was “Toxic” each time. The compound further displayed an AUC in [4] of 25600 ng·h/mL. For the same compound, the results for the IC50 with Plasmodium falciparum [5], with Plasmodium falciparum [10] and in the data set with Plasmodium falciparum [2] were 2.2 nM, 2.6 nM and 2 nM, respectively. The result in the data set with Plasmodium berghei [6], in the data set on Plasmodium berghei [7], in the data set on Plasmodium berghei [11], in the data set on Plasmodium berghei [12] and with Plasmodium berghei [14] was Active. The Tmax in [8] was found to be 2 h. The IC50 at 48 h in data set [1] is greater than 3000 nM. The compound also showed a Cmax in data set [13] of 7120 ng/mL. The half-life in data set [15] is 2.14 h.

Consider `CCCCc1cc(=O)oc2cc(Br)cc(O[C@H](C)C(=O)N3Cc4[nH]c5ccccc5c4C[C@H]3C(=O)OC)c12`, for which the half-maximal inhibitory concentration (IC50) at 48 h in data set [1] is greater than 3000 nM. For the same compound, in the data set on Plasmodium falciparum [2], the half-maximal inhibitory concentration (IC50) stood at 9.6 nM.

As to `CCc1cc(=O)oc2cc(C)cc(O[C@H](C)C(=O)N3Cc4[nH]c5ccccc5c4C[C@H]3C(=O)OC)c12`, in [1], the IC50 at 48 h is greater than 3000 nM. Also, the IC50 in the data set with Plasmodium falciparum [2] stood at 11 nM.

Turning to `CCCCc1coc2cc(C)cc(O[C@H](C)C(=O)N3Cc4[nH]c5ccccc5c4C[C@H]3C#N)c12`, in [1], the IC50 at 48 h was greater than 3000 nM. Also, the IC50 in the data set on Plasmodium falciparum [2] stood at 110 nM.

`CCCCc1cc(=O)oc2cc(C)cc(OC(CC)C(=O)N3Cc4[nH]c5ccccc5c4C[C@H]3C(=O)OC)c12` (some centres undefined): the IC50 at 48 h in data set [1] is greater than 3000 nM. Also, in the data set with Plasmodium falciparum [2], the half-inhibitory concentration (IC50) was found to be 7 nM.

For the compound `CCCCc1cc(=O)oc2cc(C)cc(OC(CCCC)C(=O)N3Cc4[nH]c5ccccc5c4C[C@H]3C(=O)OC)c12` (some centres undefined), in data set [1], the IC50 at 48 h is greater than 3000 nM. For the same compound, the half-inhibitory concentration (IC50) in the data set with Plasmodium falciparum [2] is 10 nM.

Take `CCCCc1cc(=O)oc2cc(C)cc(O[C@H](C)C(=O)N[C@@H](Cc3c[nH]c4ccccc34)C(=O)OC)c12`: the IC50 at 48 h in data set [1] was greater than 3000 nM. In the data set with Plasmodium falciparum [2], the IC50 worked out at 55 nM.

Take `COC(=O)[C@@H]1Cc2c([nH]c3ccccc23)CN1C(=O)[C@@H](C)Oc1cc(C)cc2oc(=O)cc(C)c12`: the IC50 at 48 h in [1] is greater than 3000 nM. Moreover, the IC50 in the data set with Plasmodium falciparum [2] was determined as 40 nM.

As to `CCCCc1cc(=O)oc2cc(N3CCOCC3)cc(O[C@H](C)C(=O)N3Cc4[nH]c5ccccc5c4C[C@H]3C(=O)OC)c12`, in [1], the IC50 at 48 h was greater than 3000 nM. The IC50 in the data set on Plasmodium falciparum [2] amounted to 210 nM.

Turning to `CCCCc1cc(=O)oc2cc(C)cc(OCC(=O)N3Cc4[nH]c5ccccc5c4C[C@@H]3C(=O)OC)c12`, in data set [1], the IC50 at 48 h is greater than 3000 nM. Also, the IC50 in the data set on Plasmodium falciparum [2] was found to be 980 nM.

For `CCCCc1cc(=O)oc2cc(C)cc(OCC(=O)N3Cc4[nH]c5ccccc5c4C[C@H]3C(=O)OC)c12`, the IC50 with Plasmodium falciparum [5] stood at 24 nM; in the data set with Plasmodium falciparum [10], 20 nM; with Plasmodium falciparum [2], 20 nM. In data set [1], the IC50 at 48 h was greater than 3000 nM.

With `CCCCc1cc(=O)oc2cc(C)cc(OC(C(=O)N3Cc4[nH]c5ccccc5c4C[C@H]3C(=O)OC)C(C)C)c12` (some centres undefined), the IC50 at 48 h in [1] is greater than 3000 nM. Also, the half-inhibitory concentration (IC50) in the data set with Plasmodium falciparum [2] turned out to be 6.4 nM.

Turning to `CCCCc1cc(=O)oc2cc(C)cc(O[C@H](C)C(=O)N3Cc4[nH]c5ccccc5c4C[C@H]3C(=O)OCC)c12`, in [1], the IC50 at 48 h is greater than 3000 nM. For the same compound, in the data set on Plasmodium falciparum [2], the IC50 turned out to be 55 nM.

For `CCCCc1cc(=O)oc2cc(C)cc(OCC(=O)N3Cc4[nH]c5ccccc5c4C[C@H]3C(=O)NC)c12`, the IC50 at 48 h in [1] is greater than 3000 nM. Besides, in the data set with Plasmodium falciparum [2], the IC50 was greater than 3000 nM.

For the compound `CCCCc1cc(=O)oc2cc(C)cc(O[C@@H](C)C(=O)N3Cc4[nH]c5ccccc5c4C[C@H]3C(=O)OC)c12`, the IC50 at 48 h in data set [1] was greater than 3000 nM. Besides, the IC50 in the data set with Plasmodium falciparum [2] is 190 nM.

In the case of `CCCCc1cc(=O)oc2cc(C)cc(O[C@H](C)C(=O)N3Cc4[nH]c5ccccc5c4C[C@H]3C(C)=O)c12`, the IC50 at 48 h in [1] is greater than 3000 nM. Further, in the data set on Plasmodium falciparum [2], the half-maximal inhibitory concentration (IC50) was 5.6 nM.

Regarding `CCCCc1cc(=O)oc2cc(C)cc(OC(CCC)C(=O)N3Cc4[nH]c5ccccc5c4C[C@H]3C(=O)OC)c12` (some centres undefined), in data set [1], the IC50 at 48 h is greater than 3000 nM. Further, the IC50 in the data set on Plasmodium falciparum [2] stood at 5.9 nM.

For the compound `CCCCc1cc(=O)oc2cc(C)cc(O[C@H](C)C(=O)N3Cc4[nH]c5ccccc5c4C[C@H]3C#N)c12`, the IC50 at 48 h in data set [1] is greater than 3000 nM. Also, in the data set on Plasmodium falciparum [2], the IC50 was 4.1 nM.

Turning to `CCCCC(=O)c1c(OC)cc(C)cc1O[C@H](C)C(=O)N1Cc2[nH]c3ccccc3c2C[C@H]1C(=O)OC`, the IC50 at 48 h in data set [1] was greater than 3000 nM. The IC50 with Plasmodium falciparum [2] is 2400 nM.

Consider `CCCCc1cc(=O)oc2cc(C)cc(O[C@H](C)C(=O)N3CCc4c([nH]c5ccccc45)C3)c12`, for which the IC50 at 48 h in data set [1] was greater than 3000 nM. Moreover, in the data set on Plasmodium falciparum [2], the IC50 was determined as 72 nM.

Regarding `COC(=O)[C@@H]1Cc2c([nH]c3ccccc23)CN1C(=O)[C@@H](C)Oc1cc(C)cc2oc(=O)cc(CC3CC3)c12`, in data set [1], the IC50 at 48 h was greater than 3000 nM. Further, in the data set on Plasmodium falciparum [2], the IC50 worked out at 3.5 nM.

On to `CCCc1cc(=O)oc2cc(C)cc(O[C@H](C)C(=O)N3Cc4[nH]c5ccccc5c4C[C@H]3C(=O)OC)c12`, for which the IC50 in the data set with Plasmodium falciparum [5] was 2.1 nM; in the data set with Plasmodium falciparum [10], 1.9 nM; in the data set on Plasmodium falciparum [2] it was 1.9 nM. Besides, in [1], the IC50 at 48 h is greater than 3000 nM.

With `CCCCc1coc2cc(C)cc(O[C@H](C)C(=O)N3Cc4[nH]c5ccccc5c4C[C@H]3C(=O)OC)c12`, in data set [1], the IC50 at 48 h is greater than 3000 nM. Further, in the data set on Plasmodium falciparum [2], the IC50 came out at 220 nM.

For the compound `CCCCc1cc(=O)oc2cccc(O[C@H](C)C(=O)N3Cc4[nH]c5ccccc5c4C[C@H]3C(=O)OC)c12`, the IC50 at 48 h in data set [1] was greater than 3000 nM. Further, the IC50 with Plasmodium falciparum [2] was 4.1 nM.
